For data set [1], the system named is NCI-H929 cells. Kind of data set: Apoptosis assay (Annexin-V / PI staining). The format is cell-based, human. The conditions noted are these: 20 nM equivalence of DM1, 24 h, Annexin-V and PI.
Protocol: NCI-H929 cells were incubated with 20 nM equivalence of DM1 concentration either in the form of one of the liposomal prodrug formulations, or the free drug for 24 h.
Apoptosis Assay. NCI-H929 cells were cultured in the presence of 20 nM of DM1 equivalent concentrations of NP[Prodrug], TNP[Prodrug], and free drug for 24 h. Cells were washed and stained using the Dead Cell Apoptosis Kit by following and optimizing the manufacturer's protocol. Briefly, cells were washed with cold PBS, resuspended in 1X binding buffer, followed by Annexin-V and PI staining for 30 min at room temperature. Staining was performed by adding 7 μL of Alexa Fluor® 488 Annexin-V and 8 μL of 100 μg/mL PI working solution to each 100 μL of cell suspensions. Cells in treatment groups and untreated control were stained with Annexin-V and PI. Fluorescent microscopy images were acquired by using an EVOS® FL Auto Imaging System.
Data set [2] can be described thus: Maximum tolerated dose (MTD) study in healthy mice. The format is in vivo. Conditions: healthy NOD-SCID mice. As for the experimental part: When mice were injected with free DM1 at a dose over 0.5 mg/kg twice on days 0 and 3, we observed that all animals lost over 15% of their body weight and were morbid before the end of the week (FIG. 5). […] We concluded that liposomal prodrug formulations made treatment with DM1 possible in comparison to free DM1, where its intense systemic toxicity made it a non-viable treatment option. With this approach of liposomal prodrug formulation, even the non-targeted formulations already achieved an improved therapeutic index for DM1.
Maximum Tolerated Dose (MTD) Study. […] Free drug (DM1) was administered according to the recommendations of the manufacturer. Briefly, Free drug treatments were prepared by dissolving in 10% DMSO and 90% saline containing (20% Hydroxypropyl-β-cyclodextrin as excipient) and then administered intravenously into mice.

Data set [3] concerns NCI-H929 MM Cells. Kind of data set: In vitro cytotoxicity assay (CCK-8). It counts as cell-based, human. Conditions: NCI-H929 cell line. Here is the method: Next, we evaluated the efficacy of liposomal DM1-Prodrug formulations against MM cells in vitro. For this, NCI-H929 cells were incubated with NP[Prodrug], TNP[Prodrug], free DM1-Prodrug or free drug for 24 h, 48 h and 72 h, and cell viability was determined using cell counting kit-8 (CCK-8) reagent. […] The differences in the IC50 values between free drug and the nanoparticles is possibly attributed to the release kinetics of active DM1 from nanoparticles.
Cell Culture. NCI-H929 cells were purchased from ATCC (Rockville, MD). Cells were cultured in RPMI 1640 media (Corning, NY). The cell line was supplemented with 20% fetal bovine serum (FBS), 2 mM L-Glutamine (Gibco, CA), 100U/mL penicillin (Gibco, CA), 100 μg/mL streptomycin (Gibco) and 55 μM 2-mercaptoethanol.
Cytotoxicity Assays. 15×10^3 cells/well were plated 24 h prior to each experiment in a 96-well plate. The following day, cells were treated with respective cytotoxic agents at varying concentrations. Cytotoxicity was assessed at 24 h, 48 h and 72 h using Cell Counting Kit-8 Reagent via reading absorbance at 450 nm. Viability was normalized to wells containing untreated cells.

The values that follow come from patent US20260199514A1, “PRODRUG STRATEGY THAT ENHANCES EFFICACY AND LOWERS SYSTEMIC TOXICITY OF MERTANSINE” (priority 2022, published 2026).

With `COc1cc2cc(c1Cl)N(C)C(=O)C[C@H](OC(=O)[C@H](C)N(C)C(=O)CCS)[C@]1(C)O[C@H]1[C@H](C)[C@@H]1C[C@@](O)(NC(=O)O1)[C@H](OC)/C=C/C=C(\C)C2` [free DM1, Mertansine], in data set [1], the “induction of apoptosis of MM cells” value is “induce apoptosis”. Moreover, the body weight loss entry in data set [2] (dose over 0.5 mg/kg twice on days 0 and 3) is recorded as “over 15%”. The “toxicity / side-effects in MTD study” value in data set [2] (injections on days 0 and 3, equivalent DM1 doses (nanoparticles up to 4 mg/kg)) is reported as “morbid”. For the same compound, the half-inhibitory concentration (IC50) in data set [3] (24 hours) came to 12 nM; in data set [3] (72 hours), 9 nM.
